“Also recorded” adds a separate entry of the source. Read-outs that look alike come from different tables or passages of the source.
What was measured:
[1] = test system: polymorphonuclear neutrophils (PMN) at MRSA infected skin; test: Flow cytometry of PMNs in infected skin; assay type: in vivo, mice
Protocol: For skin: abdominal skin ulcerations were excised and incubated in trypsin (0.6% in PBS) for 75 min at 37° C.; then cut into small pieces and incubated in Collagenase type II (0.5 mg/ml RPMI) for 90 min at 37° C. Skin cell suspensions were generated by serial passage of skin fragments through 18 and 20 gauge syringes. IN cell suspensions were generated mincing inguinal LNs with a razor blade before by serial passage of skin fragments through 18 and 20 gauge syringes. AU tissue preps were passed through a 70 am filter before immune cell staining. For whole blood: blood was collected, washed and resuspended in Tris-buffered ammonium chloride to lyse red blood cells.
For staining of skin, LN and whole blood preparations, the following antibodies: Anti-Ly6G (AI8), Anti-Ly6C (HK1.4), -CD11b (M1/70), CD45 (30-F11) were purchased from BioLegend. To block nonspecific binding, cells were incubated with rat anti-mouse CD16/32 FcγRIII/II (2.4G2) and vortexed prior to surface staining. In all experiments, LN or blood cells were collected on a FACS LSR using Cellquest software, and analyzed via FlowJo software. Dead cells were excluded by low forward-scatter and side-light scatter. Spectral overlaps between fluorochrome channels were corrected by automated compensation on singly stained, positive controls for each fluorochrome. In general, 50,000 cells were collected/tube. Flow cytometric analyses of agr-interference in bacterial cultures were conducted.

MRSA (USA300 LAC) = test: Intradermal MRSA skin infection model; assay type: in vivo, mice (C57BL/6 and BALB/c); settings: for cutaneous bacterial burden: Lux+ MRSA bioluminescence (IVIS)
Protocol: At D0, age, strain and sex matched mice were anesthetized with isoflurane, abdominal skin was carefully shaved and exposed skin was cleansed by wiping with an alcohol prep pad. For inoculum preparation, a USA 300 MRSA strain (AH1263), its deletion mutant, LAC strains engineered for constitutive bioluminescence via lux operon insertion (AH3700) or the Lux+ LAC engineered to constitutively express red fluorescent protein (AH 3868), green fluorescent protein (AH3669) were grown to mid-log-phase, pelleted and resuspended in DPBS to achieve 50 μl inoculum mixtures that contained either 2×10^7 CFUs+/−5 μg apicidin (diluted in neat DMSO). Apicidin or DMSO containing inoculums were injected intradermally into abdominal skin. Baseline body weights of mice were measured before infection and every day thereafter for a period of 7 days. For determination of lesion size, digital photos of skin lesions were taken daily and analyzed via ImageJ software.
The potent in vitro activity of apicidin encouraged an assessment of its efficacy in vivo. To this end, an intradermal challenge model was employed by delivering a single 5 μg dose of apicidin along as part of the inoculum suspension containing 2×10^7 MRSA organisms.

AgrA = target: T1, AgrA (Staphylococcus aureus, UniProt P0A0I7); test: agr null agrP3 lux reporter with plasmid encoded AgrA; assay type: cell-based; settings: agr null strain
T1 construct: expressed in transfected cells; host or cells: agr null S. aureus agrP3-lux reporter strain
T1 sequence (P0A0I7 whole entry): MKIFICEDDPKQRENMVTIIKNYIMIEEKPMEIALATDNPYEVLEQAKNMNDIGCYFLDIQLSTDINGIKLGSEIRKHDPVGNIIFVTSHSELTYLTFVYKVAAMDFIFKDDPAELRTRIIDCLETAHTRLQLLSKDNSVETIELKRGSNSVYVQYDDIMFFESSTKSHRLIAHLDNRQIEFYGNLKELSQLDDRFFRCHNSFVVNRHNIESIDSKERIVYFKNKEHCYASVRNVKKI
Protocol: (§1) To investigate the mechanisms by which apicidin inhibits quorum sensing, a series of in vitro assays were conducted to systematically assess the relative contribution of each of the core genetic elements of the agrBDCA operon (FIG. 13A). The membrane embedded peptidase AgrB, is responsible for processing the AgrD pro-peptide (immature AIP) for extracellular release. To determine if apicidin inhibits agr signaling at the level of AIP signal generation, an established system was used whereby the agrBD genes (under sarA P1 promoter regulation), were integrated into an agr null strain derived from the USA300 isolate LAC (40). This construct enables alterations to AIP signal biosynthesis to be clearly delineated from regulation stemming from signal integration. […] Next, the possibility that apicidin interferes with the sensory activity of AIP receptor AgrC was explored. For this, a R235H construct bearing a point mutation that confers constitutive AgrC activity, and thereby enables phospho-activation of AgrA to occur independently of AIP binding, was employed. […] Next, it was determined if AgrA serves as the target of apicidin. To this end, an agr null reporter construct, whereby agrP3 lux activation can only be achieved through the constitutive production of plasmid encoded AgrA […], was employed. […]

S. aureus LAC = test: Bacterial growth (OD) in reporter time course; assay type: cell-based, Staphylococcus aureus
Protocol: (§2) Apicidin was tested for quorum quenching activity against all four agr types using P3-YFP reporter strains AH1677 (type I), AH430 (type II) AH1747 (type III), and AH1872 (type IV). (28) Overnight cultures of reporter strains that were grown in TSB supplemented with Cam were inoculated at a dilution of 1:250 into fresh TSB containing Cam. 100 μL, aliquots were added to 96-well microtiter plates containing 100 μL aliquots of TSB containing Cam and 2-fold serial dilutions of apicidin. Readings were recorded at 30 min increments using a Tecan Systems Infinite M200 plate reader.
Overnight cultures of agr strain types I, II, III, and IV were inoculated 1:500 into 5 ml of TSB (in 17×150 mm culture tubes) containing apicidin at concentrations of 100, 50, 25, 12.5, and 6.25 μg mL (28). All cultures were incubated at 37° C. with shaking (250 rpm), and growth was monitored by periodically transferring 100 μL of culture to a 96-well microtiter plate and reading OD600 in a Tecan Systems Infinite M200 plate reader. […] To quantify hemolytic activity, the filter sterilized culture supernatants from apicidin treated cultures were serially in TSB, and 50 μL aliquots were dispensed in quadruplicate into 96-well microtiter plates. […] Hemolysis was detected by the loss of turbidity as measured at OD630 using a Tecan Infinite M200 plate reader.

[2] = test system: agr (P3-YFP reporter strains, agr types I-IV); test: agr P3-YFP reporter quorum quenching assay; assay type: cell-based, Staphylococcus aureus
Protocol: as §2

[3] = test system: CXCL-2 and G-CSF in lesional tissue; test: Cytokine measurements from tissue homogenates; assay type: in vivo, mice; settings: lesional tissue one day after infection
Protocol: Biopsy punches (4 mm), obtained from the center of skin ulcerations 1 day after infection, were homogenized with in sterile RPMI with proteinase inhibitor cocktail. The supernatants from these preparations were incubated with a multiplex bead array for IL-1β, G-CSF, KC (CXCL1), and CXCL2. Data were collected on a Luminex 200 (Luminex, Austin, Tex., USA) and analyzed with […]

MRSA transcriptome (LAC) = test: RNA-seq of WT LAC cultures; assay type: cell-based, Staphylococcus aureus
Protocol: Cultures of LAC and LAC ? agr were grown in TSB with DMSO alone or 100 µM apicidin (diluted in neat DMSO). All four cultures were grown to optical density of 1.4 at 600 nm, and the RNA was purified. The samples were subjected to DNase treatment and sample was quality was affirmed via Bioanalyzer (Agilent). […] was depleted with a Ribo-Zero rRNA Removal Kit from gram positive bacteria (Illumina). cDNA libraries were generated at the University of Iowa Genomics Division using the TruSeq Stranded mRNA Library Prep kit (Illumina). Sample were barcoded, pooled and sequenced in a 100×100 pared end reads using HiSeq_FPR3757 genome sequence using SeqMan NGen (DNASTAR) and the alignment were analyzed using ArrayStar (DNASTAR).
To evaluate the impact of apicidin upon global transcriptional regulation RNA-seq analysis upon WT LAC cultures grown in the presence of apicidin or vehicle was conducted. For purposes of comparing the effects of apicidin upon the MRSA transcriptome with those resulting from agr deletion, parallel RNA seq-analysis of WT and Δagr preparations were performed. A four-fold cutoff as the threshold for differential gene expression was used, and apicidin altered the expression of thirty transcripts, with >50% of these representing prototypical agr targets such hla, RNAIII, psms, and spl genes (FIG. 10).

AgrC = test: Constitutive AgrC mutant (R235H) assays; assay type: cell-based, Staphylococcus aureus
Protocol: as §1

[4] = test system: agr activation of LAC agr-P3 lux; test: Measurement of quorum quenching in vivo (agr-P3 lux reporter strain); set-up: species or system mice
Protocol: Inoculum preparation for assessing quorum quenching in vivo: An LAC reporter strain engineered to couple agr activation with bioluminescence, agr-P3 lux (AH2759) was grown in TSB medium+chloramphenicol, overnight at 37° C. in a shaking incubator set to 200 rpm. Overnight cultures were diluted 1:100 TSB+chloramphenicol and subcultured to an optical density of 0.1 at 600 nm hr). Bacterial cells were the pelleted and resuspended in sterile saline. […] Using the image analysis tools in living image software, circular analysis windows (of uniform area) were overlaid onto abdominal regions of interest (as depicted in FIG. 8e) and the corresponding bioluminescence values (total flux) were measured and plotted vs. time after infection.
To this end, mice with an agr-P3 lux reporter strain were challenged and carefully monitored the kinetics of agr activation over a six-hour period immediately following infection.

[5] = test system: AIP signal biosynthesis (AgrB/AgrD); test: Mass spectrometric measurement of AIP production (agrBD in agr null LAC); assay type: cell-based, Staphylococcus aureus; settings: apicidin treated vs vehicle cultures
Protocol: as §1

[6] = test system: agr systems of Staphylococcus epidermidis isolates of each agr-type; test: agr-P3 reporter strains of S. epidermidis; assay type: cell-based

CCC(=O)CCCCC[C@@H]1NC(=O)[C@H]2CCCCN2C(=O)[C@H](C(C)CC)NC(=O)[C@H](Cc2cn(OC)c3ccccc23)NC1=O (stereo partly drawn) [apicidin]
PMN density / accumulation at infected skin ([1]; 24 hours post infection): enhanced; also recorded: increased the density of PMNs within infected wounds; also recorded: augmenting their accumulation
frequency of PMN able to phagocytose MRSA ([1]; DsRed+ MRSA): Though not significantly, a trend showing increased frequency
number of PMNs that phagocytosed MRSA ([1]; lesional skin preparations): increased; also recorded: overall enhancement MRSA uptake within the entire network of cutaneous PMNs
frequency of apoptotic PMNs ([1]; lesional skin, one day after infection): decrease in the frequency of apoptotic PMNs
cutaneous bacterial burden (MRSA (USA300 LAC)): reduced; also recorded: decrease in bacterial burden was observed throughout the experiment
cutaneous bacterial burden (MRSA (USA300 LAC); listed as Apicidin): reduced cutaneous bacterial burden
CFUs recovered from lesional skin (MRSA (USA300 LAC); one day after infection): significantly fewer CFUs were recovered
skin lesion / dermatopathology (MRSA (USA300 LAC); single 5 ug dose with 2x107 MRSA, intradermal, 14 days): significantly reduced MRSA-induced dermatopathology
inhibition of AgrA-dependent agr-P3 reporter activation (AgrA): dose dependent inhibition of agr-P3 driven bioluminescence; also recorded: inhibited agr-P3 reporter activation
growth inhibition / bactericidal effect (S. aureus LAC): non-bactericidal; also recorded: minimal growth inhibition
agr inhibition relative to its analogues [2]: showed the most impressive actions as an agr inhibitor
MICs for quorum sensing inhibition ([2]; across S. aureus isolates): low micromolar
agr-type dependence of quorum quenching potency ([2]; agr P3 driven YFP expression, time course): types II and IV representing the most sensitive and resistant respectively
inhibition of quorum sensing (agr P3 reporter) ([2]; agr types I-IV reporter strains): inhibited quorum sensing activity across S. aureus isolates; also recorded: inhibition extends to all 4 agr types; also recorded: inhibited the quorum sensing responses of multiple agr types
IC50 of agr-inhibition ([2]; all agr types): μM concentrations that were sub-inhibitory for growth
production of CXCL-2 [3]: decrease
production of G-CSF [3]: decrease
transcriptional signature (MRSA transcriptome (LAC)): narrowly focused upon the agr virulon; also recorded: largely confined to agr-regulated transcripts
number of transcripts with altered expression (MRSA transcriptome (LAC); 100 uM apicidin, four-fold cutoff): thirty
share of altered transcripts that are prototypical agr targets (MRSA transcriptome (LAC); four-fold cutoff): > 50%
quorum quenching in agr-P3 reporter strain with constitutive AgrC activity (AgrC): maintenance of potent quorum quenching activity
inhibition of lytic activity, constitutive AgrC mutant (AgrC; RBC lysis, R235H strain): dose dependent inhibition of lytic activity
skin ulcers after agr-P3 lux reporter strain challenge ([4]; 14-day period): dramatic reduction in dermatopathology
agr activation in vivo ([4]; agr-P3 lux reporter, 5 ug apicidin, first hours after infection): reduced quorum sensing activity in vivo; also recorded: significant interference of agr activation in vivo; also recorded: high level of agr interference
effect on AIP production [5]: does not target AIP signal biosynthesis; also recorded: does not alter the release of AIP signals
quorum quenching in S. epidermidis [6]: extend to multiple staphylococcal species
quorum quenching in S. epidermidis ([6]; listed as Apicidin): quorum sensing inhibition across S. epidermidis agr types
